Experimental data published in patent US12233161B1, “Lipids and lipid nanoparticle formulations” (LONGUIDE BIOPHARMA CORPORATION, priority 2024, dated 2025).

Columns and labels:
mice = assay: In vivo delivery of FLuc-mRNA lipid nanoparticles in mice, in vivo imaging (IVIS)
Outline: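 Mice (n=3) received about 75 μL FLuc-mRNA LNP per mouse intramuscularly (rectus femoris), intravenously (tail vein), intraperitoneally or subcutaneously (back). After injection, D-luciferin (200 μL, 15 mg/mL) was given i.p. 10-15 min before IVIS imaging.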

[1] = Potential characterization of nucleic acid lipid nanoparticle preparations; assay type: physicochemical
Outline: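 Zeta potential was read on a Malvern ZEN3700 after diluting 20 μL lipid nanoparticle solution (about 0.04 mg/mL mRNA) into 780 μL ultrapure water. Alternatively, a 27.5 μL sample in 200 μL water was first sized by dynamic light scattering, then diluted with 600 μL more water for potential measurement.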

[2] = Particle size and PDI of nucleic acid lipid nanoparticle preparations by dynamic light scattering; assay type: physicochemical
Outline: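 Nanoparticle suspension (about 0.04 mg/mL mRNA) diluted in ultrapure water, mixed by gentle pipetting; particle size measured by dynamic light scattering. Zeta potential measured on the recovered sample after further dilution in ultrapure water.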

[3] = DMG-PEG2000:DSPC:Chol:Lipid 1.50:11.50:17.00:70.00, N/P 30, IV, liver
[4] = DMG-PEG2000:DSPC:Chol:Lipid 1.50:11.50:17.00:70.00, N/P 30, IV, lung
[5] = DMG-PEG2000:DSPC:Chol:Lipid 1.50:11.50:17.00:70.00, N/P 30, IV, spleen
[6] = DMG-PEG2000:DSPC:Chol:Lipid 1.50:11.50:37.00:50.00, N/P 30, IV, liver
[7] = DMG-PEG2000:DSPC:Chol:Lipid 1.50:11.50:37.00:50.00, N/P 30, IV, lung
[8] = DMG-PEG2000:DSPC:Chol:Lipid 1.50:11.50:37.00:50.00, N/P 30, IV, spleen
[9] = DMG-PEG2000:DSPC:Chol:Lipid 1.50:11.50:57.00:30.00, N/P 30, IV, liver
[10] = DMG-PEG2000:DSPC:Chol:Lipid 1.50:11.50:57.00:30.00, N/P 30, IV, lung
[11] = DMG-PEG2000:DSPC:Chol:Lipid 1.50:11.50:57.00:30.00, N/P 30, IV, spleen
[12] = DMG-PEG2000:DSPC:Chol:Lipid 2.50:11.50:51.00:35.00, N/P 18, IV, liver
[13] = DMG-PEG2000:DSPC:Chol:Lipid 2.50:11.50:51.00:35.00, N/P 18, IV, lung
[14] = DMG-PEG2000:DSPC:Chol:Lipid 2.50:11.50:51.00:35.00, N/P 18, IV, spleen
[15] = DMG-PEG2000:DSPC:Chol:compound 1.50:30.00:33.50:35.00, N/P 9
[16] = DMG-PEG2000:DSPC:Chol:compound 1.50:30.00:48.50:20.00, N/P 9
[17] = DMG-PEG2000:DSPC:Chol:compound 1.50:30.00:58.50:10.00, N/P 9
[18] = DMG-PEG2000:DSPC:Chol:compound 1.50:30.00:63.50:5.00, N/P 9
[19] = DMG-PEG2000:DSPC:Chol:Lipid 1.50:11.50:17.00:70.00, N/P 30, mRNA LNP
[20] = DMG-PEG2000:DSPC:Chol:Lipid 1.50:11.50:37.00:50.00, N/P 30, mRNA LNP
[21] = DMG-PEG2000:DSPC:Chol:Lipid 1.50:11.50:57.00:30.00, N/P 30, mRNA LNP
[22] = DMG-PEG2000:DSPC:Chol:Lipid 1.71:12.98:45.31:40.00, N/P 30, mRNA LNP
[23] = DMG-PEG2000:DSPC:Chol:Lipid 2.50:11.50:51.00:35.00, N/P 18, mRNA LNP

Zeta potential (mV) [1, 15]: 16.03 mV
Zeta potential (mV) [1, 16]: 14.53 mV
Zeta potential (mV) [1, 17]: 15.47 mV
Zeta potential (mV) [1, 18]: 16.57 mV
PDI [2, 19]: 0.17 ± 0.01
Particle size [2, 19]: 118.13 ± 0.40 nm
PDI [2, 20]: 0.20 ± 0.01
Particle size [2, 20]: 130.87 ± 0.87 nm
PDI [2, 21]: 0.13 ± 0.02
Particle size [2, 21]: 88.09 ± 0.52 nm
PDI [2, 22]: 0.24 ± 0.02
Particle size [2, 22]: 94.33 ± 1.52 nm
PDI [2, 23]: 0.17 ± 0.01
Particle size [2, 23]: 99.13 ± 0.78 nm
PDI [2, 15]: 0.20
Particle size (nm) [2, 15]: 141.40 nm
PDI [2, 16]: 0.21
Particle size (nm) [2, 16]: 107.23 nm
PDI [2, 17]: 0.21
Particle size (nm) [2, 17]: 136.30 nm
PDI [2, 18]: 0.16
Particle size (nm) [2, 18]: 128.87 nm
SMILES: CCCCCCCCCCCCOC(=O)C(O)CN(CCCN(C)CCCN(CC(O)C(=O)OCCCCCCCCCCCC)CC(O)C(=O)OCCCCCCCCCCCC)CC(O)C(=O)OCCCCCCCCCCCC (centres unmarked) [Compound L0261]
IVIS (mice; DMG-PEG2000:DSPC:Chol:Lipid 1.50:11.50:17.00:70.00, N/P 30, IV, body): 4.64 × 10^7
% of organ targeting (mice; [3]): 1.68%
IVIS (mice; [3]): 1.65 × 10^6
% of organ targeting (mice; [4]): 91.29%
IVIS (mice; [4]): 8.93 × 10^7
% of organ targeting (mice; [5]): 7.03%
IVIS (mice; [5]): 6.88 × 10^6
IVIS (mice; DMG-PEG2000:DSPC:Chol:Lipid 1.50:11.50:37.00:50.00, N/P 30, IV, body): 1.09 × 10^8
% of organ targeting (mice; [6]): 30.20%
IVIS (mice; [6]): 1.83 × 10^7
% of organ targeting (mice; [7]): 30.87%
IVIS (mice; [7]): 1.87 × 10^7
% of organ targeting (mice; [8]): 38.93%
IVIS (mice; [8]): 2.36 × 10^7
IVIS (mice; DMG-PEG2000:DSPC:Chol:Lipid 1.50:11.50:57.00:30.00, N/P 30, IV, body): 5.88 × 10^7
% of organ targeting (mice; [9]): 17.84%
IVIS (mice; [9]): 1.20 × 10^7
% of organ targeting (mice; [10]): 7.50%
IVIS (mice; [10]): 5.06 × 10^6
% of organ targeting (mice; [11]): 74.66%
IVIS (mice; [11]): 5.03 × 10^7
IVIS (mice; DMG-PEG2000:DSPC:Chol:Lipid 1.71:12.98:45.31:40.00, N/P 30, IM, whole body scan): 5.24 × 10^6
IVIS (mice; DMG-PEG2000:DSPC:Chol:Lipid 2.50:11.50:51.00:35.00, N/P 18, IV, body): 4.72 × 10^7
% of organ targeting (mice; [12]): 6.56%
IVIS (mice; [12]): 3.81 × 10^6
% of organ targeting (mice; [13]): 1.88%
IVIS (mice; [13]): 1.09 × 10^6
% of organ targeting (mice; [14]): 91.57%
IVIS (mice; [14]): 5.33 × 10^7
IVIS (mice; IV, body, DMG-PEG2000:DSPC:Chol:compound 1.50:30.00:33.50:35.00, N/P 9, Fluc-mRNA): 2.66E+07
IVIS (mice; IV, body, DMG-PEG2000:DSPC:Chol:compound 1.50:30.00:48.50:20.00, N/P 9, Fluc-mRNA): 1.18E+07
IVIS (mice; IV, body, DMG-PEG2000:DSPC:Chol:compound 1.50:30.00:58.50:10.00, N/P 9, Fluc-mRNA): 2.03E+06
IVIS (mice; IV, body, DMG-PEG2000:DSPC:Chol:compound 1.50:30.00:63.50:5.00, N/P 9, Fluc-mRNA): 1.06E+06
% of organ targeting (mice; IV, liver, DMG-PEG2000:DSPC:Chol:compound 1.50:30.00:33.50:35.00, N/P 9): 3.86%
IVIS (mice; IV, liver, DMG-PEG2000:DSPC:Chol:compound 1.50:30.00:33.50:35.00, N/P 9, Fluc-mRNA): 1.00E+06
% of organ targeting (mice; IV, liver, DMG-PEG2000:DSPC:Chol:compound 1.50:30.00:48.50:20.00, N/P 9): 8.55%
IVIS (mice; IV, liver, DMG-PEG2000:DSPC:Chol:compound 1.50:30.00:48.50:20.00, N/P 9, Fluc-mRNA): 1.65E+06
% of organ targeting (mice; IV, liver, DMG-PEG2000:DSPC:Chol:compound 1.50:30.00:58.50:10.00, N/P 9): 36.36%
IVIS (mice; IV, liver, DMG-PEG2000:DSPC:Chol:compound 1.50:30.00:58.50:10.00, N/P 9, Fluc-mRNA): 7.14E+05
% of organ targeting (mice; IV, liver, DMG-PEG2000:DSPC:Chol:compound 1.50:30.00:63.50:5.00, N/P 9): 26.05%
IVIS (mice; IV, liver, DMG-PEG2000:DSPC:Chol:compound 1.50:30.00:63.50:5.00, N/P 9, Fluc-mRNA): 1.91E+05
% of organ targeting (mice; IV, lung, DMG-PEG2000:DSPC:Chol:compound 1.50:30.00:33.50:35.00, N/P 9): 2.02%
IVIS (mice; IV, lung, DMG-PEG2000:DSPC:Chol:compound 1.50:30.00:33.50:35.00, N/P 9, Fluc-mRNA): 5.23E+05
% of organ targeting (mice; IV, lung, DMG-PEG2000:DSPC:Chol:compound 1.50:30.00:48.50:20.00, N/P 9): 4.05%
IVIS (mice; IV, lung, DMG-PEG2000:DSPC:Chol:compound 1.50:30.00:48.50:20.00, N/P 9, Fluc-mRNA): 7.80E+05
% of organ targeting (mice; IV, lung, DMG-PEG2000:DSPC:Chol:compound 1.50:30.00:58.50:10.00, N/P 9): 4.39%
IVIS (mice; IV, lung, DMG-PEG2000:DSPC:Chol:compound 1.50:30.00:58.50:10.00, N/P 9, Fluc-mRNA): 8.62E+04
% of organ targeting (mice; IV, lung, DMG-PEG2000:DSPC:Chol:compound 1.50:30.00:63.50:5.00, N/P 9): 7.91%
IVIS (mice; IV, lung, DMG-PEG2000:DSPC:Chol:compound 1.50:30.00:63.50:5.00, N/P 9, Fluc-mRNA): 5.78E+04
% of organ targeting (mice; IV, spleen, DMG-PEG2000:DSPC:Chol:compound 1.50:30.00:33.50:35.00, N/P 9): 94.12%
IVIS (mice; IV, spleen, DMG-PEG2000:DSPC:Chol:compound 1.50:30.00:33.50:35.00, N/P 9, Fluc-mRNA): 2.44E+07
% of organ targeting (mice; IV, spleen, DMG-PEG2000:DSPC:Chol:compound 1.50:30.00:48.50:20.00, N/P 9): 87.40%
IVIS (mice; IV, spleen, DMG-PEG2000:DSPC:Chol:compound 1.50:30.00:48.50:20.00, N/P 9, Fluc-mRNA): 1.68E+07
% of organ targeting (mice; IV, spleen, DMG-PEG2000:DSPC:Chol:compound 1.50:30.00:58.50:10.00, N/P 9): 59.25%
IVIS (mice; IV, spleen, DMG-PEG2000:DSPC:Chol:compound 1.50:30.00:58.50:10.00, N/P 9, Fluc-mRNA): 1.16E+06
% of organ targeting (mice; IV, spleen, DMG-PEG2000:DSPC:Chol:compound 1.50:30.00:63.50:5.00, N/P 9): 66.04%
IVIS (mice; IV, spleen, DMG-PEG2000:DSPC:Chol:compound 1.50:30.00:63.50:5.00, N/P 9, Fluc-mRNA): 4.83E+05
tissue-targeting specificity (lung vs spleen depending on molar percentage of compound) (mice; certain formulations, Table 2): strong tissue-targeting specificity
